Consider one compound from ChEMBL document CHEMBL5252585, “Structure optimization and discovery of novel compound for the treatment of insertion mutations within exon 20 of EGFR and HER2” (Bioorg Med Chem, 2023).

The source made the active and inactive calls. No cut-off for these calls is given here.

Series [1] in a line: Cmax in Sprague-Dawley rat at 10 mg/kg, po measured upto 8 hrs by LC-MS/MS analysis. In kind it is ADME, organism-based. Set-up: dose 10 mg/kg, time < 8 hrs, route po. The following applies: in vivo.
For series [2], the system named is BaF3. In words: Inhibition of HER2-A775-G776 ins YVMA mutant in mouse BaF3 cells assessed as reduction in HER2 phosphorylation incubated for 24 hrs by Western blot analysis. In kind it is cell-based. To be noted: dose 1-100 nM. (In western blotting, separated proteins are transferred to a membrane and probed.)
The target of series [3] is Tyrosine-protein kinase Blk (Homo sapiens) (UniProt P51451). The series is described as follows: Inhibition of BLK (unknown origin) at 500 nM relative to control.
Series [4] in a line: Clearance in Sprague-Dawley rat at 10 mg/kg, po measured upto 8 hrs by LC-MS/MS analysis. Type of series: ADME, organism-based. To be noted: in vivo.
For series [5], the system named is BaF3. In words: Antiproliferative activity against mouse BAF3 cells harboring HER2-A775-G776 ins YVMA mutant after 72 hrs by celltiter-Glo luminescence assay. Type of series: functional, cell-based. The following applies: BaF3, 72 h. (In general: In ATP-based viability assays light output follows the ATP content of the culture.)
The nature of series [6]: Tmax in Sprague-Dawley rat at 10 mg/kg, po measured upto 8 hrs by LC-MS/MS analysis. The following applies: in vivo. In kind it is ADME, organism-based.
The nature of series [7]: Clearance in Sprague-Dawley rat at 10 mg/kg, iv measured upto 8 hrs by LC-MS/MS analysis. Type of series: ADME, organism-based. To be noted: in vivo.
Series [8] deals with BaF3. The series is described as follows: Antitumor activity against mouse BaF3 cells implanted in BALB/c mouse harboring HER2-A775-G776 ins YVMA mutant assessed as tumor growth inhibition at 10 mg/kg, po administered once daily for 13 to 14 days. The following applies: time 13-14 day, read-out: TGI. Type of series: functional.
The subject of series [9] is BaF3. The series is described as follows: Inhibition of EGFR D770-N771 ins NPG mutant in mouse BaF3 cells assessed as reduction in EGFR phosphorylation at less than 1 nM incubated for 24 hrs by Western blot analysis. In kind it is cell-based.
The nature of series [10]: Toxicity in BALB/c mouse harboring HER2-A775-G776 ins YVMA mutant implanted with mouse BaF3 cells assessed as change in body weight at 10 to 20 mg/kg, po administered once daily for 13 to 14 days. To be noted: in vivo, dose lower 10 mg/kg, time lower 13 day, dose upper 20 mg/kg, time upper 14 day. Type of series: organism-based.
The subject of series [11] is BaF3. In words: Inhibition of HER2-A775-G776 ins YVMA mutant in mouse BaF3 cells assessed as reduction in HER2 phosphorylation at less than 1 nM incubated for 24 hrs by Western blot analysis. Type of series: cell-based.
Series [12] addresses Voltage-gated inwardly rectifying potassium channel KCNH2 (Homo sapiens, UniProt Q12809). In words: Binding affinity to human ERG. In kind it is toxicity.
Series [13] deals with BaF3. The series is described as follows: Antiproliferative activity against mouse BAF3 cells harboring HER2-P780-Y781 ins GSP mutant after 72 hrs by celltiter-Glo luminescence assay. The following applies: BaF3, 72 h. In kind it is functional, cell-based.
Series [14] in a line: Cmax in Sprague-Dawley rat at 10 mg/kg, iv measured upto 8 hrs by LC-MS/MS analysis. In kind it is ADME, organism-based. Set-up: dose 10 mg/kg, time < 8 hrs, route iv. To be noted: in vivo.
For series [15], the system named is BaF3. In words: In vivo inhibition of HER2-A775-G776 ins YVMA mutant in BALB/c mouse implanted with mouse BaF3 cells assessed as reduction in HER2 phosphorylation at 10 to 20 mg/kg, po administered once daily for 13 to 14 days by Western blot analysis. Type of series: functional, organism-based. To be noted: dose 10-20 mg/kg, time 13-14 day.
Series [16] deals with BaF3. In words: Antitumor activity against mouse BaF3 cells implanted in BALB/c mouse harboring EGFR D770-N771 ins NPG mutant assessed as tumor growth inhibition at 10 mg/kg, po administered once daily for 13 to 14 days. In kind it is functional. The following applies: time 13-14 day, read-out: TGI.
Series [17] has as its system BaF3. In words: Antitumor activity against mouse BaF3 cells implanted in BALB/c mouse harboring HER2-A775-G776 ins YVMA mutant assessed as tumor growth inhibition at 20 mg/kg, po administered once daily for 13 to 14 days. Type of series: functional. The following applies: time 13-14 day, read-out: TGI.
Series [18] addresses T1, Tyrosine-protein kinase TXK (Homo sapiens) (UniProt P42681).
T1 sequence (whole entry): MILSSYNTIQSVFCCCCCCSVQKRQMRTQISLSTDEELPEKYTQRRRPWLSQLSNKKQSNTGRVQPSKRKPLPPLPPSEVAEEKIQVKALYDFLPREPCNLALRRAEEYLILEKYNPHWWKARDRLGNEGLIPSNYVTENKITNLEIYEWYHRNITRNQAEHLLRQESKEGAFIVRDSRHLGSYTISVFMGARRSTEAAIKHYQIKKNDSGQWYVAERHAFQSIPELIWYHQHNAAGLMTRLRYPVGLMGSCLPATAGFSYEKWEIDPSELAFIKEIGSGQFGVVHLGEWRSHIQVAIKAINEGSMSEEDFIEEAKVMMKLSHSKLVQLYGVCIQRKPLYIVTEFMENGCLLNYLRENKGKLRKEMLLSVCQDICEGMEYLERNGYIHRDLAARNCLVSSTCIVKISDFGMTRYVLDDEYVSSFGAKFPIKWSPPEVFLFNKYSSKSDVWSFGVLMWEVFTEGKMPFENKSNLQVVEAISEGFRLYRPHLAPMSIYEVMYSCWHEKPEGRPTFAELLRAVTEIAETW
In words: Inhibition of TXK (unknown origin) at 500 nM relative to control.

A short description of series [19]: Mean residence time in Sprague-Dawley rat at 10 mg/kg, iv measured upto 8 hrs by LC-MS/MS analysis. In kind it is ADME, organism-based. To be noted: in vivo.
Series [20] has as its target Tyrosine-protein kinase BTK (Homo sapiens) (UniProt Q06187). In words: Inhibition of BTK (unknown origin) at 500 nM relative to control.

Tyrosine-protein kinase BTK (Homo sapiens), sequence (Q06187 whole entry): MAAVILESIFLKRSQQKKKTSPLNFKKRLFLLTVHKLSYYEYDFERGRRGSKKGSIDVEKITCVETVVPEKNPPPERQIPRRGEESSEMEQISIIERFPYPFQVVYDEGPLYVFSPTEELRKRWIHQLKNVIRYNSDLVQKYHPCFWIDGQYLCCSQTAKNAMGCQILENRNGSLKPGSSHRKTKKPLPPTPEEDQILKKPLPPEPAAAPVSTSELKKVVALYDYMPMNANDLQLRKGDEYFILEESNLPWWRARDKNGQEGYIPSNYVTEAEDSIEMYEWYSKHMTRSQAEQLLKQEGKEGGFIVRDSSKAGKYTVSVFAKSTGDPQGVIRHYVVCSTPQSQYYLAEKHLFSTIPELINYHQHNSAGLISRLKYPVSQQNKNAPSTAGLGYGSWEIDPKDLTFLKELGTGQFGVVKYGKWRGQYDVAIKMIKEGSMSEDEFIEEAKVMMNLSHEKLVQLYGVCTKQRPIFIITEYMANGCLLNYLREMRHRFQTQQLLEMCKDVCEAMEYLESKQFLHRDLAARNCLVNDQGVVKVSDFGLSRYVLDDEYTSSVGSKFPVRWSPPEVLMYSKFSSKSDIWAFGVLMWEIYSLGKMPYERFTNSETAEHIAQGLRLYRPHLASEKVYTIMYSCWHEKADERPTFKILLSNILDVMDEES
Tyrosine-protein kinase Blk (Homo sapiens), sequence (P51451 2-505 limits assumed): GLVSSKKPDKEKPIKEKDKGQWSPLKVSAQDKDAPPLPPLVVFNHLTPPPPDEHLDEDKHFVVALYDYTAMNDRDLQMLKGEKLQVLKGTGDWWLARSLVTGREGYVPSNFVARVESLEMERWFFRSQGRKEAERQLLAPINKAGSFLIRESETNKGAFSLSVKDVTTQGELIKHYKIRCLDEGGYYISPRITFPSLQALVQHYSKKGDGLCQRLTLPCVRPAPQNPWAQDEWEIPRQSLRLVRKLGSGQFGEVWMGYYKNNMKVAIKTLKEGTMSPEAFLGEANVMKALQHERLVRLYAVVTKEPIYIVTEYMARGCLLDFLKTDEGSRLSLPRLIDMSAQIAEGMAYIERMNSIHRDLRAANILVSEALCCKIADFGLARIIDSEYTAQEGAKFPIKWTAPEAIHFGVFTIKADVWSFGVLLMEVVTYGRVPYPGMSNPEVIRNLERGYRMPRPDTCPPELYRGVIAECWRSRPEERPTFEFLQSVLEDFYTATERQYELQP
Voltage-gated inwardly rectifying potassium channel KCNH2, sequence (Q12809 whole entry): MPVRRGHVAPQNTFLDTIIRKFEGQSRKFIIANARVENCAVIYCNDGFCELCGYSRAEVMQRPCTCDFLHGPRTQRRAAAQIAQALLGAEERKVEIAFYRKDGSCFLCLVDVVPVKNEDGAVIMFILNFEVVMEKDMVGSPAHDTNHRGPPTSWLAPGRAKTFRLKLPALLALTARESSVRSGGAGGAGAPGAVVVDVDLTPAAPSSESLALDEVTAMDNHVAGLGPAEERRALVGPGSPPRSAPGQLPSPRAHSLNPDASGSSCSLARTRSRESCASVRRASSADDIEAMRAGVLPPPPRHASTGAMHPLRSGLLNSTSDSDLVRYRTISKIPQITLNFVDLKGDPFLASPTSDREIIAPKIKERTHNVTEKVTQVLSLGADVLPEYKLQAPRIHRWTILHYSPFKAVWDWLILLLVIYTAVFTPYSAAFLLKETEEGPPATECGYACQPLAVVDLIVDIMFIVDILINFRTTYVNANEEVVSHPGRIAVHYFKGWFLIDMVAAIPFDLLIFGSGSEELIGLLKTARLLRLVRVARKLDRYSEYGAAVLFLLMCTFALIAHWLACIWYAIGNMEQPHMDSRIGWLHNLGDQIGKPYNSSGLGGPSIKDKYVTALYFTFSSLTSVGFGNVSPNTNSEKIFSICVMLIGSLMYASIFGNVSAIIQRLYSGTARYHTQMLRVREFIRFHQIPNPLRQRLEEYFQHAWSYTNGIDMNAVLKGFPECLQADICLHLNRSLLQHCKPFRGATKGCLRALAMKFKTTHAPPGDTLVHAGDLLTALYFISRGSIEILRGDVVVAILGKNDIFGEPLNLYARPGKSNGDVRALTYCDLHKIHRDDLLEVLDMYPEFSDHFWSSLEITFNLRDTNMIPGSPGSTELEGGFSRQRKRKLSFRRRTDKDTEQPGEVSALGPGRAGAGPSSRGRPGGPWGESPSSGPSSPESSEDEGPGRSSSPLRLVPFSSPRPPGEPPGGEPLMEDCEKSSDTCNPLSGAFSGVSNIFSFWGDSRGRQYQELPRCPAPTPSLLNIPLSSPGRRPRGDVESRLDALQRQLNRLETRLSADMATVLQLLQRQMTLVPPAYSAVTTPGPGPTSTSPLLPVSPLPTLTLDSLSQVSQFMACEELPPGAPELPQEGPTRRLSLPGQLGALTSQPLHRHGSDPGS

With `C=CC(=O)N1CCC(Oc2cc3c(Nc4cccc(Cl)c4F)ncnc3cc2O[C@H]2CCOC2)CC1`, the Cmax (in general, the highest concentration seen after dosing) came to 1690 ng/mL in series [1] and 8270 ng/mL in series [14]. Besides, the inhibition – broadly, the relative decrease from the control value, in per cent – was “Dose-Dependent Effect” in series [2], > 20% in series [3], > 20% in series [18] and > 20% in [20]. For the same compound, the CL/F (in general, clearance divided by bioavailability, as obtained after extravascular dosing) in series [4] is 2.96 mL/min. The IC50 (in general, the midpoint of a concentration-inhibition curve) was 0.95 nM in series [5], > 15 µM in series [12] and 0.62 nM in [13]. Also, the Tmax – broadly, the time at which the peak concentration occurs – in series [6] was 1.33 h. For the same compound, the clearance (usually the rate of elimination divided by the concentration) in series [7] was 2.32 mL/min. Further, the inhibition in vivo at 10 mg/kg in series [8] was 75%; in [16], 67%. In addition, the inhibition entry in [9], in [11] and in series [15] was “Active” throughout. In addition, the Activity entry in series [10] is “Non-Toxic”. Also, the inhibition in vivo at 20 mg/kg in series [17] was 90%. Also, the MRT (commonly a mean duration of stay, worked out from the concentration-time curve) in [19] was 1.89 h.
